From ChEMBL document CHEMBL1201862, “PubChem BioAssay data set” (2004)
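Values below derive from 48-hour exposures of cells grown in 96-well plates, with endpoints linearly interpolated between the two concentrations bracketing the appropriate inhibition level. GI50: concentration for 50% inhibition of growth.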 Active and inactive are the calls of the source. Rule as the data show it: active = GI50 up to about 1.1 µM and inactive = higher.

Assays:
Assay in all cases: inhibition of tumour cell growth, NCI panel, 48 h
[1] = test system: ACHN
[2] = test system: COLO 205
[3] = test system: HCC 2998
[4] = test system: HCT-15
[5] = test system: HOP-92
[6] = test system: HT-29
[7] = test system: Hs-578T
[8] = test system: MDA-MB-435
[9] = test system: MDA-N
[10] = test system: NCI-H23
[11] = test system: NCI-H522
[12] = test system: OVCAR-4
[13] = test system: PC-3
[14] = test system: RXF 393
[15] = test system: SK-MEL-2
[16] = test system: SK-MEL-5
[17] = test system: SR
[18] = test system: UACC-257
[19] = test system: HCT-116

Row | SMILES | GI50 [1] | GI50 [2] | GI50 [3] | GI50 [4] | GI50 [5] | GI50 [6] | GI50 [7] | GI50 [8] | GI50 [9] | GI50 [10] | GI50 [11] | GI50 [12] | GI50 [13] | GI50 [14] | GI50 [15] | GI50 [16] | GI50 [17] | GI50 [18] | GI50 [19]
1 | COC(=O)C1=C(C)NC(=O)N2[C@@H](CCOCc3ccccc3)CC[C@@H]12 | > 50 µM (inactive) | > 50 µM (inactive) | > 50 µM (inactive) | > 50 µM | > 50 µM (inactive) | > 50 µM (inactive) | > 50 µM (inactive) | > 50 µM (inactive) | > 50 µM (inactive) | > 50 µM (inactive) | > 50 µM (inactive) | > 50 µM (inactive) | > 50 µM (inactive) | 13.1 µM (inactive) | > 50 µM (inactive) | > 50 µM (inactive) | > 50 µM (inactive) | > 50 µM (inactive) | 
2 | Cc1c(-c2ccccc2)c(-c2ccc(OCCN(C)C)cc2)n2ccccc12 | 13.9 µM (inactive) | 1.64 µM (inactive) | 1.69 µM (inactive) | 2.55 µM | 8.59 µM (inactive) | 1.82 µM (inactive) | 5.41 µM (inactive) | 3.79 µM (inactive) | 4.37 µM (inactive) | 16.6 µM (inactive) | 9.06 µM (inactive) | 12.4 µM (inactive) | 6.34 µM (inactive) | 7.69 µM (inactive) | 7.74 µM (inactive) | 1.87 µM (inactive) | 2.43 µM (inactive) | 2.04 µM (inactive) | 5.61 µM (inactive)
3 | CC(C)(C)[Si](C)(C)OCC1CCC(n2cnc3c(NC(=O)c4ccccc4)ncnc32)O1 (stereo not given) | 19.2 µM (inactive) | 18.5 µM (inactive) | 19.5 µM (inactive) | 18.6 µM | 16.6 µM (inactive) | 19.1 µM (inactive) | 14 µM (inactive) | 15.8 µM (inactive) | 17.2 µM (inactive) | 18.4 µM (inactive) | 16.4 µM (inactive) | 21.8 µM (inactive) | 20.6 µM (inactive) | 22 µM (inactive) | 19 µM (inactive) | 11.5 µM (inactive) | 29.9 µM (inactive) | 18.7 µM (inactive) | 19 µM (inactive)
4 | Cc1c(-c2ccccc2)c(C#N)c2nnn(-c3ccc(Cl)cc3)c(=O)n12 | 4.26 µM (inactive) | 11 µM (inactive) | 10.6 µM (inactive) | 10.1 µM | > 100 µM (inactive) | 15.8 µM (inactive) | 71.4 µM (inactive) | 31 µM (inactive) | 24.2 µM (inactive) | 37 µM (inactive) | 10.9 µM (inactive) | 25.8 µM (inactive) | 22.2 µM (inactive) | 28.2 µM (inactive) | 26.8 µM (inactive) | 1.14 µM (inactive) | 8.53 µM (inactive) | 35.8 µM (inactive) | 12.8 µM (inactive)
5 | BrC1(c2ccccc2)C[n+]2c(-c3ccccc3)cc(-c3ccccc3)cc2-c2ccccc21 (stereo not given) | 1.42 µM (inactive) | 0.157 µM (active) | 0.111 µM (active) | 2.9 µM | 0.664 µM (active) | 0.34 µM (active) | 0.231 µM (active) | 0.205 µM (active) | 0.327 µM (active) | 1 µM (active) | 0.384 µM (active) | 0.977 µM (active) | 0.346 µM (active) | 0.183 µM (active) | 0.317 µM (active) | 0.197 µM (active) | 0.611 µM (active) | 0.233 µM (active) | 0.365 µM (active)
6 | CC(C)(C)OC(=O)NC(CSCc1ccc(C(=O)c2ccccc2)cc1)C(=O)O (stereo not given) | > 100 µM (inactive) | > 100 µM (inactive) | > 100 µM (inactive) | > 100 µM | > 100 µM (inactive) | > 100 µM (inactive) | 34.9 µM (inactive) | > 100 µM (inactive) | > 100 µM (inactive) | > 100 µM (inactive) | > 100 µM (inactive) | 88.9 µM (inactive) | > 100 µM (inactive) | > 100 µM (inactive) |  | > 100 µM (inactive) | 87.9 µM (inactive) | > 100 µM (inactive) | > 100 µM (inactive)
7 | N=c1oc2ccccc2cc1-c1nc2ccccc2c(=O)[nH]1 | 22.1 µM (inactive) | > 100 µM (inactive) | 90.2 µM (inactive) | 78.2 µM | 20 µM (inactive) | 39.1 µM (inactive) | 23.2 µM (inactive) | > 100 µM (inactive) | > 100 µM (inactive) |  | 14.7 µM (inactive) | > 100 µM (inactive) | > 100 µM (inactive) | 31.4 µM (inactive) | 58.9 µM (inactive) | > 100 µM (inactive) | 42.9 µM (inactive) | > 100 µM (inactive) | 42.9 µM (inactive)
